For 90 compounds, melting point results are on record in a melting point compilation (Tetko et al.; mined from patent text by program, amines drawn as free bases though some values may be those of a salt).

SMILES strings stand for the structures.

What is called melting point is the temperature of the solid-liquid transition. The compound `CCCN(CC)C(C)CN1CCc2c(c(=O)oc3cc(OC)ccc23)C1` (stereo not given) displayed a melting point of 100 to 101 °C.

Compound `CCOC(=O)CCCNc1cc(OC)c(OC)cc1C(C)=O` gave a melting point of 74 to 76 °C.

`Cc1ccc(C)c(Nc2ncc(C(=O)O)c(=O)[nH]2)c1`: the melting point was 242 to 244 °C.

`O=C(NCCO)C(F)(OC(F)(F)C(F)(F)C(F)(F)F)C(F)(F)F` (stereo not given) showed a melting point of 69 to 72 °C.

In turn, `CCOC(=O)c1cc2cc(OCSN(C)C)ccc2oc1=O` yielded a melting point of 157 to 160 °C.

With `CNC(=O)NCc1cncn1C1c2ccccc2CCC1(C)C` (stereo not given), the melting point amounted to 120 °C.

Consider `CC(=O)N1CC(CCN2CC=CCC2c2ccc(C(F)(F)F)cc2)c2ccccc21` (stereo not given), for which the melting point fell in the range of 85 to 88 °C.

`CCCn1cc2c(C3C(=O)Nc4ccc(Br)cc43)nc(NCCCN)nc2n1` (stereo not given): the melting point is > 300 °C.

With `CNS(=O)(=O)CCCn1cnc2c(N)nc3ccccc3c21`, the melting point was in the range of 155 to 157 °C.

For `CCN(C(=O)c1ccc(C(=O)c2cnc3ccccn23)cc1)c1ccccc1`, the melting point lay in the range of 141 to 145 °C.

With `COc1ccc2c(c1)C(=O)NC(C(Cl)(Cl)Cl)O2` (stereo not given), the melting point lay in the range of 162 to 165 °C.

As to `O=C1C(C(c2ccccc2)c2ccccc2)NC2CCCC3C(C2)C13` (stereo not given), the melting point lay in the range of 178 to 181 °C.

As to `CCCSC(C)c1c(-c2ccc(S(C)(=O)=O)cc2)cnn(-c2ccc(F)cc2)c1=O` (stereo not given), the melting point is 45 to 60 °C.

For the compound `COc1cc(CC(=O)O)ccc1OCc1nc(-c2ccco2)oc1C`, the melting point was in the range of 162 to 164 °C.

`COCCN(C)C(=O)NCCNCC(O)COc1ccc(OCCOCC(C)C)cc1` (stereo not given): the melting point lay in the range of 60 to 63 °C.

With `CNC(=S)N(C)Cc1cnc(Cl)s1`, the melting point lay within 129 to 131 °C.

For the compound `CCCOC(=O)CCc1cc(Cl)ccc1C(=O)CCCNC(C)=O`, the melting point was in the range of 60 to 62 °C.

With `O=C(O)Cc1ccc(OCCNC(=O)C2Cc3ccccc3N2S(=O)(=O)c2ccc(-c3ccc(F)cc3Cl)cc2)cc1` (stereo not given), the melting point is 90 °C.

For the compound `Fc1ccc(-c2c(-c3ccccc3)oc3ncnc(Cl)c23)cc1`, the melting point lay within 124 to 127 °C.

`COC(=O)CN(CC(=O)OC)c1cc(O)cc(O)c1`: the melting point is 200 to 202 °C.

Consider `CC1Cc2cccc(S(N)(=O)=O)c2OS1(=O)=O` (stereo not given), for which the melting point is 185 to 186 °C.

In the case of `O=c1cc2c(nn1-c1ccc(Cl)cc1)-c1cc(Br)sc1CCC2`, the melting point was 143 to 144 °C.

Regarding `CCOc1ccccc1C(=O)c1oc2ccc(Cl)cc2c1N`, the melting point fell in the range of 114 to 115 °C.

With `COc1cc(OC)cc(C(=O)N[C@H]2CCN(C)C[C@H]2c2ccccc2)c1` (relative stereo), the melting point lay in the range of 123 to 124 °C.

For the compound `COc1ccc(Cc2nc3c(c4c2[nH]c2ccccc24)CCC(C)(C)C3)cc1`, the melting point amounted to 158 °C.

On to `O=C1O[C@@H](CNC(=S)C(F)F)CN1c1cc(F)c(N2CCS(=O)(=O)CC2)c(F)c1`, for which the melting point lay within 88 to 90 °C.

On to `NS(=O)(=O)c1cccc(-c2cccc(-c3nc(-c4ccc(Cl)s4)cc(C(F)(F)F)n3)c2)c1`, for which the melting point stood at 226 °C.

Compound `COc1cc(C(=O)O)c(OC)c2c1C(C)(C)CCC2(C)C` showed a melting point of 187 °C.

In the case of `O=C(N[C@H]1CCN(C(=O)c2cc(C(F)(F)F)cc(C(F)(F)F)c2)[C@H](Cc2ccccc2)C1)c1ccnc2ccccc12`, the melting point was 187 °C.

In the case of `N#Cc1c(N2CCc3ccccc3CC2)nc(CCO)[nH]c1=O`, the melting point lay in the range of 184 to 188 °C.

`CCN(CC)C(=O)n1cnc(S(=O)(=O)CC2CCC2)n1`: the melting point is 113 to 116 °C.

Consider `CN(C)C1(c2ccccc2Cl)C(=O)Nc2ccc(Cl)cc21` (stereo not given), for which the melting point fell in the range of 169 to 172 °C.

As to `Cc1nc(NC(=O)c2cccc3ccccc23)sc1C(=O)NCc1ccccc1`, the melting point lay within 99 to 101 °C.

For `CCOC(=O)c1cc2oc3c(n2n1)CCCC3`, the melting point lay in the range of 55 to 57 °C.

In the case of `CC(C)CCCC(C)C1CCC2C3CC=C4CCCCC4(C)C3CCC12C` (stereo not given), the melting point was 90 to 92 °C.

Compound `COc1cccc(CNc2ncnc3c2sc2nc(N(C)C)c4c(c23)CC(C)(C)CC4)c1OC` yielded a melting point of 91.9 to 93 °C.

For `CCOC(=O)c1cn2c3ccc(Br)cc3c3cc(OC)cc(c1=O)c32`, the melting point was in the range of 95.6 to 97.6 °C.

`CN1C(=O)CC[C@]2(C)c3ccc(Sc4ccc5cccc([N+](=O)[O-])c5n4)cc3CC[C@@H]12` registered a melting point of 199 to 200 °C.

Regarding `COC=Nc1c(S(=O)(=O)C(F)(F)F)c(-c2ncon2)nn1-c1c(Cl)cc(C(F)(F)F)cc1Cl`, the melting point turned out to be 158 °C.

In turn, `CCON=C(CC)C1=C(O)CC(c2c(C)c([N+](=O)[O-])c(C)c([N+](=O)[O-])c2C)CC1=O` (stereo not given) came in with a melting point of 170 °C.

`Cc1[nH]cnc1Cc1cccc2c1OC(C)(C)OC2` returned a melting point of 172 to 178 °C.

Turning to `Cc1cc(-c2cc(C(F)(F)F)nc(-c3ccnc(-c4ccc(S(N)(=O)=O)s4)c3)n2)ccc1Cl`, the melting point was 280 °C.

`CCOC(=O)CCCSc1ncnc2c(O)n(C)nc12` gave a melting point of 160 to 161 °C.

As for `ClCCCOc1ccccc1Nc1nc(Cl)nc2[nH]cnc12`, the melting point came to 205 °C.

On to `CCCCCCCCCCCCCCC(O)CO` (stereo not given), for which the melting point fell in the range of 76 to 77 °C.

`COc1ccc(C2(O)CC3CCC(C2)N3C)cc1` (stereo not given) registered a melting point of 162 °C.

In turn, `CN1CCN(c2ccc(/C=C/c3ccccc3F)cc2)CC1` yielded a melting point of 142 to 144 °C.

As for `Cc1cc(CO)cc(Cl)n1`, the melting point fell in the range of 112 to 113 °C.

`CNC(=O)N(OC)C(=O)Nc1ccccc1F` had a melting point of 144 to 147 °C.

As to `O=C(Nc1ccccc1)ONC1=Nc2ccc(Cl)cc2C(c2ccccc2)=NC1`, the melting point was in the range of 215 to 217 °C.

On to `C=CCC(C#N)(C#N)Cc1ccc(C)cc1`, for which the melting point turned out to be 74.5 °C.

The compound `CCCOc1ccc(S(=O)(=O)N2CCN(Cc3ccccc3)CC2)cc1-c1nc2cc(Cl)c([N+](=O)[O-])cc2c(=O)[nH]1` showed a melting point of 198 to 200 °C.

`Nc1n[nH]c2c(F)c(F)ccc12`: the melting point was 183 °C.

On to `OC[C@@H](O)[C@@H](O)[C@H](O)[C@H](O)CCl`, for which the melting point lay within 125 to 127 °C.

As for `N=C(Nc1ccc(NC(=O)CNCc2ccccc2)cc1)c1cccs1`, the melting point lay within 161 to 163 °C.

`c1cc(N=C2SCC3Cc4sccc4CN23)c2ccncc2c1` (racemic) came in with a melting point of 198 °C.

Take `O=C(NCc1cc(C(F)(F)F)cc(C(F)(F)F)c1)c1c(-c2ccccc2)c2ccccc2[nH]c1=O`: the melting point fell in the range of 251 to 252 °C.

`COc1cc2c(cc1OCc1ccccc1)CN(Cc1ccccc1)C2` displayed a melting point of 94 to 96 °C.

For `CCCCc1nnc(SCC2CCCCC2)n1Cc1ccc(-c2ccccc2-c2nnn[nH]2)cc1`, the melting point was 89 to 91 °C.

`CCOCc1nc2c(N)nc3ccccc3c2n1CC1CCN(C)C(=O)O1` (stereo not given) gave a melting point of 192 to 194 °C.

Compound `C=CCNCc1noc(-c2ncn3c2CN(C)C(=O)c2c(Cl)cccc2-3)n1` came in with a melting point of 171 to 174 °C.

Compound `CCOC(=O)c1c(Cl)c2ccccc2[nH]c1=O` came in with a melting point of 186 °C.

Take `CNc1sc2c(c1C(=O)c1ccccc1)CCCC2`: the melting point was 128 to 130 °C.

On to `Clc1cccc(Oc2nnc(Cc3ccncc3)c3ccccc23)c1`, for which the melting point lay within 143 to 145 °C.

Turning to `CCOC(=O)c1cc2ccccc2n(C(C)C)c1=O`, the melting point was in the range of 54 to 57 °C.

Consider `COc1nc2ncccc2c2nc(SCc3ccccc3)nn12`, for which the melting point lay within 282 to 284 °C.

`Oc1cc(-n2cc3c(n2)CCCC3)c(Cl)cc1Cl` had a melting point of 84 to 86 °C.

In turn, `CC(O)CCCCc1ccc(-c2ccccc2)cc1` (stereo not given) gave a melting point of 71 to 72 °C.

In turn, `CCCCNc1cc(C(=O)O)cc(S(=O)(=O)NCCCC)c1Oc1ccccc1` displayed a melting point of 184 to 185 °C.

The compound `CCOC(=O)C(=CNc1nc(C)c(C)s1)C(=O)OCC` gave a melting point of 82 to 83.5 °C.

`CCCCCCCCCCCCc1c2c(=O)c3cc(-c4cccs4)ccc3c2c(CCCCCCCCCCCC)c2c(=O)c3cc(-c4cccs4)ccc3c12` had a melting point of 205 to 206 °C.

The compound `O=C(O)COc1cccc2c1CCc1sc(Sc3ccc([N+](=O)[O-])cc3[N+](=O)[O-])nc1-2` yielded a melting point of 223 to 226 °C.

Consider `CN1C(=S)N(c2cc(Cl)cc(Cl)c2)C(O)C1O` (stereo not given), for which the melting point was found to be 143 °C.

`CCCCCCCCCCc1ccc(C(N)(CO)CO)cc1` had a melting point of 136 to 137 °C.

The compound `O=C(O)C(Cl)CCCCCCCCCCCCC(Cl)C(=O)O` (stereo not given) gave a melting point of 71 to 72 °C.

`CCS(=O)(=O)NC(=O)c1cccc(N)c1` registered a melting point of 129 to 132 °C.

Consider `CCOC(=O)c1nn2c(-c3ccc(OC)cc3)nnc2c2ccccc12`, for which the melting point is 180 to 182 °C.

Consider `Cc1c(C#N)c(NC(=O)c2ccccc2)n(C(C)c2ccccc2)c1C` (stereo not given), for which the melting point was in the range of 218 to 221 °C.

The compound `Nc1ccc(C#Cc2ccc(OC3CN4CCC3CC4)nn2)cc1` (stereo not given) yielded a melting point of 212 to 220 °C.

`Cc1c(SC(=S)N(C)C)sn(-c2ccccc2)c1=O` gave a melting point of 158 to 160 °C.

`CN1Cc2c(S(=O)(=O)Cl)cc3[nH]c(=O)c(=O)[nH]c3c2C1`: the melting point is > 300 °C.

Turning to `CC(CN(C)C)CC(CNC(=O)NCCCl)(c1ccc(F)cc1)c1ccc(F)cc1` (stereo not given), the melting point was in the range of 105 to 107 °C.

`CCCCCC1CC=C(c2ccc(Br)cc2)CC1` (stereo not given) had a melting point of 67 to 68 °C.

As for `CCCNC(=O)Nc1ccc(C(=O)c2ncc3ccccn23)cc1C(=O)OC`, the melting point was 205 °C.

`Cn1cc2c(cc1=O)CCCC2=O`: the melting point lay in the range of 94 to 97 °C.

In turn, `O=C(NC(=O)c1ccccc1Cl)Nc1ccc(-n2cccc2)c(Cl)c1` gave a melting point of 169 to 170 °C.

With `O=C(Nc1ccccc1)N1Cc2cccn2-c2ccsc2C1=O`, the melting point came to 176 °C.

For the compound `Cc1ccccc1NC(=O)c1ccccc1C(c1ccc(O)cc1)c1ccc(O)cc1`, the melting point was in the range of 267 to 269 °C.

In turn, `COc1cc(OC)c(C(=O)CCCCCl)c(OC)c1` showed a melting point of 53 to 55 °C.

The compound `C#Cc1cn(C2CC(O)C(CO)O2)c(=O)n(C(=O)c2ccccc2)c1=O` (stereo not given) gave a melting point of 156 to 157 °C.
